Experiment: physchem
Details: organic solvent or mixture, thermodynamic from solid
Experimental: Weighed samples of material were treated with aliquots of specified solvents at ambient temperature. Samples were typically sonicated between additions to facilitate dissolution. Complete dissolution was observed through visual inspection. Solubility was calculated based on the total amount of solvent added to achieve complete dissolution and may be greater than the value reported due to incremental solvent addition and the inherent kinetics of dissolution. If dissolution was not observed, values are reported as “less than”. If dissolution was observed upon the first addition of solvent, values are reported as “greater than”.

solubility: < 1000 µg/mL
SMILES: Br.Br.CCC[C@H](N[C@H]1CCc2cc(F)cc(F)c2C1)C(=O)Nc1cn(C(C)(C)CNCC(C)(C)C)cn1 [nirogacestat dihydrobromide, (S)-2-(((S)-6,8-difluoro-1,2,3,4-tetrahydronaphthalen-2-yl)amino)-N-(1-(2-methyl-1-(neopentylamino)propan-2-yl)-1H-imidazol-4-yl)pentanamide]

Reference: patent US20230121547A1, “A COMBINATION THERAPY WITH NIROGACESTAT AND A BCMA-DIRECTED THERAPY AND USES THEREOF” (SpringWorks Therapeutics Inc., priority 2020, published 2023)
